Among the data in US20240182445A1 (ONO PHARMACEUTICAL CO., LTD., priority 2019, published 2024) are IC50 and inhibition values, retold here.

For the first assay, the target named is T1, human TREK-1 (Homo sapiens, UniProt O95069).
T1 construct: expressed in transfected cells
T1 sequence (O95069 1-426): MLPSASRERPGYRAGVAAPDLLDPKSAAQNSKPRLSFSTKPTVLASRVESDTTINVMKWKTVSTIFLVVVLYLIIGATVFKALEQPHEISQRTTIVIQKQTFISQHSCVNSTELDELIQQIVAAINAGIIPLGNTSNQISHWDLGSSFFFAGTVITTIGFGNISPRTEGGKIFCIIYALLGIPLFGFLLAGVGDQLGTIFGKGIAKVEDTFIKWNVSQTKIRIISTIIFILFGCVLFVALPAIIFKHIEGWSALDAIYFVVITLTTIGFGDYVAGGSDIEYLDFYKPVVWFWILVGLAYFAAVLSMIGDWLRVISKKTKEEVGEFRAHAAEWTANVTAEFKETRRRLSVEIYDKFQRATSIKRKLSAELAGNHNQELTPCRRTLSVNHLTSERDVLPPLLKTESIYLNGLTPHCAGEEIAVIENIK
The assay is described as follows: TREK-1 Thallium (Tl+) flux assay, Method 1. It counts as cell-based. Conditions: TREK-1 Thallium (Tl+) flux assay, Method 1. Summed up: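 CHO-K1 cells stably expressing human TREK-1, loaded with Thallos dye, received compound or 0.3% DMSO vehicle for 10 min before thallium stimulus buffer. ΔRatio is fluorescence at 25 s after thallium addition over mean pre-addition fluorescence; % inhibition calculated from it.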
In turn, `Cc1cc(-c2ccc(C(F)(F)F)nc2)cnc1NC(=O)c1c(Cl)cnn1C1CCN(C(=O)OC(C)(C)C)CC1` [Compound 396, tert-butyl 4-(4-chloro-5-((5-methyl-6′-(trifluoromethyl)-[3,3′-bipyridin]-6-yl)carbamoyl)-1H-pyrazol-1-yl)piperidine-1-carboxylate] registered an IC50 of 1.6 µM.
On to `CCCCOc1ccc(-c2cnc(NC(=O)c3c(Cl)cnn3C3CCN(C(C)=O)CC3)c(C)c2)cc1` [Compound 416, 1-(1-acetylpiperidin-4-yl)-N-(5-(4-butoxyphenyl)-3-methylpyridin-2-yl)-4-chloro-1H-pyrazole-5-carboxamide], for which half-maximal inhibition (IC50) required 4.07 µM.
As for `COc1ncc(-c2cnc(NC(=O)c3c(Cl)cnn3C3CCN(C(=O)OC(C)(C)C)CC3)c(C)c2)cn1` [Compound 419, tert-butyl 4-(4-chloro-5-((5-(2-methoxypyrimidin-5-yl)-3-methylpyridin-2-yl)carbamoyl)-1H-pyrazol-1-yl)piperidine-1-carboxylate], the concentration for half-maximal inhibition (IC50) came to 4.19 µM.

The same assay, now with this note: TREK-1 Thallium (Tl+) flux assay; no *^12 (Method 2) mark on these rows.
Compound `CC(C)(C)OC(=O)N1CC[C@@H](n2ncc(Cl)c2C(=O)Nc2ncc(C#Cc3ccccc3)cc2F)[C@H](F)C1` [Compound 337, tert-butyl (3R,4R)-4-(4-chloro-5-((3-fluoro-5-(phenylethynyl)pyridin-2-yl)carbamoyl)-1H-pyrazol-1-yl)-3-fluoropiperidine-1-carboxylate] came in with an IC50 of 0.72 µM.
In turn, `Cc1cc(C#Cc2ccccc2)cnc1NC(=O)c1c(Cl)cnn1C1CCOCC1` [Compound 210, 4-chloro-N-(3-methyl-5-(phenylethynyl)pyridin-2-yl)-1-(tetrahydro-2H-pyran-4-yl)-1H-pyrazole-5-carboxamide] gave an IC50 of 0.32 µM.
`CC(=O)N1CCC(Cn2ncc(Cl)c2C(=O)Nc2ncc(C#Cc3ccccc3F)cc2C)CC1` [Compound 356, 1-((1-acetylpiperidin-4-yl)methyl)-4-chloro-N-(5-((2-fluorophenyl)ethynyl)-3-methylpyridin-2-yl)-1H-pyrazole-5-carboxamide] came in with an IC50 of 0.86 µM.
As to `CC(C)(C)OC(=O)N1CCC(CCn2ncc(Cl)c2C(=O)Nc2ncc(C#Cc3ccccc3)cc2F)CC1` [Compound 290, tert-butyl 4-(2-(4-chloro-5-((3-fluoro-5-(phenylethynyl)pyridin-2-yl)carbamoyl)-1H-pyrazol-1-yl)ethyl)piperidine-1-carboxylate], the IC50 is 0.51 µM.
`COc1c(F)cc(-c2cnc(NC(=O)c3c(Cl)cnn3C3CCN(C(=O)OC(C)(C)C)CC3)c(C)c2)cc1F` [Compound 386, tert-butyl 4-(4-chloro-5-((5-(3,5-difluoro-4-methoxyphenyl)-3-methylpyridin-2-yl)carbamoyl)-1H-pyrazol-1-yl)piperidine-1-carboxylate] showed an IC50 of 0.89 µM.

Still in this assay, the particulars now being: TREK-1 Thallium (Tl+) flux assay; values without footnote *12 are Method 1.
Compound `CC(C)C(=O)N1CCOC(Cn2ncc(Cl)c2C(=O)Nc2ncc(C#Cc3ccccc3)cc2F)C1` (stereo not drawn) [Compound 145, 4-chloro-N-(3-fluoro-5-(phenylethynyl)pyridin-2-yl)-1-((4-isobutyrylmorpholin-2-yl)methyl)-1H-pyrazole-5-carboxamide] yielded an IC50 of 0.23 µM.
In turn, `CC(C)C(=O)N1CC[C@@H](Cn2ncc(Cl)c2C(=O)Nc2ncc(C#Cc3ccccc3)cc2F)[C@@H](F)C1` [Compound 146, 4-chloro-1-(((3R,4S)-3-fluoro-1-isobutyrylpiperidin-4-yl)methyl)-N-(3-fluoro-5-(phenylethynyl)pyridin-2-yl)-1H-pyrazole-5-carboxamide] showed an IC50 of 0.23 µM.
Take `CC(=O)N1C[C@H]2C[C@H](n3ncc(Cl)c3C(=O)Nc3ncc(C#Cc4cccs4)cc3C)C[C@H]2C1` [Compound 110, 1-[(3aR,5s,6aS)-2-acetyloctahydrocyclopenta[c]pyrrol-5-yl]-4-chloro-N-{3-methyl-5-[(thiophen-2-yl)ethynyl]pyridin-2-yl}-1H-pyrazole-5-carboxamide]: the midpoint of inhibition, the IC50, lay at 0.2 µM.
For `CC(=O)N1CCC(n2ncc(Br)c2C(=O)Nc2ncc(C#Cc3ccccc3)cc2C)CC1` [Compound 17, 1-(1-acetylpiperidin-4-yl)-4-bromo-N-(3-methyl-5-(phenylethynyl)pyridin-2-yl)-1H-pyrazole-5-carboxamide], it took 0.04 µM to reach half-maximal inhibition (IC50).
Compound `CC(=O)N1CC[C@H](n2ncc(Cl)c2C(=O)Nc2ncc(C#Cc3ccccc3)cc2C)C[C@@H]1C` (single isomer, unassigned) [Compound 31, 1-[(2S,4S)-1-acetyl-2-methylpiperidin-4-yl]-4-chloro-N-[3-methyl-5-(phenylethynyl)pyridin-2-yl]-1H-pyrazole-5-carboxamide or 1-[(2R,4R)-1-acetyl-2-methylpiperidin-4-yl]-4-chloro-N-[3-methyl-5-(phenylethynyl)pyridin-2-yl]-1H-pyrazole-5-carboxamide] returned an IC50 of 0.1 µM.
`CC(=O)N1CCC(C#N)(Cn2ncc(Cl)c2C(=O)Nc2ncc(C#Cc3ccccc3)cc2C)CC1` [Compound 84, 1-((1-acetyl-4-cyanopiperidin-4-yl)methyl)-4-chloro-N-(3-methyl-5-(phenylethynyl)pyridin-2-yl)-1H-pyrazole-5-carboxamide] displayed an IC50 of 0.16 µM.
On to `CC(=O)N1CC(Cn2ncc(Cl)c2C(=O)Nc2ncc(C#Cc3ccccc3)cc2C)C1` [Compound 135, 1-((1-acetylazetidin-3-yl)methyl)-4-chloro-N-(3-methyl-5-(phenylethynyl)pyridin-2-yl)-1H-pyrazole-5-carboxamide], for which half-maximal inhibition (IC50) was put at 0.22 µM.
Regarding `CC(=O)N1CC[C@@H](n2ncc(Cl)c2C(=O)Nc2ncc(C#Cc3ccccc3)cc2F)[C@H](F)C1` [Compound 20, 1-((3R,4R)-1-acetyl-3-fluoropiperidin-4-yl)-4-chloro-N-(3-fluoro-5-(phenylethynyl)pyridin-2-yl)-1H-pyrazole-5-carboxamide], the IC50 came to 0.07 µM.
Turning to `O=C(Nc1ncc(C#Cc2ccccc2)cc1F)c1c(Cl)cnn1C1CCN(C(=O)C2CC2)CC1` [Compound 130, 4-chloro-1-(1-(cyclopropanecarbonyl)piperidin-4-yl)-N-(3-fluoro-5-(phenylethynyl)pyridin-2-yl)-1H-pyrazole-5-carboxamide], the midpoint of inhibition, the IC50, lay at 0.22 µM.
In turn, `CC(=O)N1CCOC(Cn2ncc(Cl)c2C(=O)Nc2ncc(C#Cc3ccccc3)cc2F)C1` (stereo not drawn) [Compound 27, 1-((4-acetylmorpholin-2-yl)methyl)-4-chloro-N-(3-fluoro-5-(phenylethynyl)pyridin-2-yl)-1H-pyrazole-5-carboxamide] displayed an IC50 of 0.09 µM.
The same measure, in the same setting: as for `CC(C)C(=O)N1CCC(CCn2ncc(Cl)c2C(=O)Nc2ncc(C#Cc3ccccc3)cc2F)CC1` [Compound 144, 4-chloro-N-(3-fluoro-5-(phenylethynyl)pyridin-2-yl)-1-(2-(1-isobutyrylpiperidin-4-yl)ethyl)-1H-pyrazole-5-carboxamide], the figure is 0.23 µM.

Still in this assay, the particulars now being: read-out: Tl^+ Assay % inhibition at 30 uM (Minus value indicates activation of TREK-1); at 30 uM; CHO-K1 cells stably expressing human TREK-1; minus = activation.
With `Cc1cc(C#Cc2ccccc2)cnc1NC(=O)c1nn(CC2CCOCC2)cc1Cl` [Compound 444, 4-chloro-N-(3-methyl-5-(phenylethynyl)pyridin-2-yl)-1-((tetrahydro-2H-pyran-4-yl)methyl)-1H-pyrazole-3-carboxamide], the inhibition at 30 µM is -116%.
Same read-out and setting: the same measure for `CC(=O)N1CCC(CCn2cc(Cl)c(C(=O)Nc3ncc(C#Cc4cccs4)cc3F)n2)CC1` [Compound 447, 1-(2-(1-acetylpiperidin-4-yl)ethyl)-4-chloro-N-(3-fluoro-5-(thiophen-2-ylethynyl)pyridin-2-yl)-1H-pyrazole-3-carboxamide]: -107%.
